Experiments:
purple nutsedge = assay: Test B pre/postemergence purple nutsedge; type: in vivo, Cyperus rotundus
Method in brief: (§1)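 Herbicidal effect was estimated by eye on a ten-point control scale after plants spent twelve to sixteen days in a greenhouse following soil or foliar treatment. Foliar sprays targeted plants at one to four leaves; all doses were formulated in a non-phytotoxic solvent with surfactant.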

velvetleaf = assay: Test B pre/postemergence velvetleaf; type: in vivo, Abutilon theophrasti
Method in brief: as §1

sugar beet = assay: Test B pre/postemergence sugar beet; type: in vivo, Beta vulgaris
Method in brief: as §1

surinam grass = assay: Test B pre/postemergence surinam grass; type: in vivo, Brachiaria decumbens
Method in brief: as §1

wild oat = assay: Test B pre/postemergence wild oat; type: in vivo, Avena fatua
Method in brief: as §1

corn = assay: Test B pre/postemergence corn; type: in vivo, Zea mays
Method in brief: as §1

blackgrass = assay: Test B pre/postemergence blackgrass; type: in vivo, Alopecurus myosuroides
Method in brief: as §1

bedstraw = assay: Test B pre/postemergence bedstraw; type: in vivo, Galium aparine
Method in brief: as §1

bamyardgrass = assay: Test B flood test barnyardgrass; type: in vivo, Echinochloa crus-galli
Method in brief: (§2)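 Plants were grown to the 2-leaf stage before treatment with test chemical, then held in a greenhouse for twelve to sixteen days. Injury was visually rated against untreated controls on a 0–10 scale, where 0 is no effect and 10 is complete control.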

morningglory = assay: Test B pre/postemergence morningglory; type: in vivo, Ipomoea hederacea
Method in brief: as §1

rape = assay: Test B pre/postemergence rape; type: in vivo, Brassica napus
Method in brief: as §1

crabgrass = assay: Test B pre/postemergence crabgrass; type: in vivo, Digitaria sanguinalis
Method in brief: as §1

rice = assay: Test B flood test rice; type: in vivo, Oryza sativa
Method in brief: as §2

cocklebur = assay: Test B pre/postemergence cocklebur; type: in vivo, Xanthium strumarium
Method in brief: as §1

smallflower flatsedge = assay: Test B flood test smallflower flatsedge; type: in vivo, Cyperus difformis
Method in brief: as §2

soybean = assay: Test B pre/postemergence soybean; type: in vivo, Glycine max
Method in brief: as §1

giant foxtail = assay: Test B pre/postemergence giant foxtail; type: in vivo, Setaria faberii
Method in brief: as §1

wheat = assay: Test B pre/postemergence wheat; type: in vivo, Triticum aestivum
Method in brief: as §1

duck salad = assay: Test B flood test duck salad; type: in vivo, Heteranthera limosa
Method in brief: as §2

pigweed = assay: Test B pre/postemergence pigweed; type: in vivo, Amaranthus retroflexus
Method in brief: as §1

[1] = Preemergence, Rate 62 g/ha, scale of 0 to 10 where 0 is no effect and 10 is complete control
[2] = Preemergence, Rate 250 g/ha, scale of 0 to 10 where 0 is no effect and 10 is complete control
[3] = Preemergence, Rate 500 g/ha, scale of 0 to 10 where 0 is no effect and 10 is complete control
[4] = Rate 125 g/ha, Preemergence, scale of 0 to 10 where 0 is no effect and 10 is complete control
[5] = Rate 500 g/ha, Postemergence, scale 0 to 10, 0 no effect, 10 complete control
[6] = Rate 62 g/ha, Postemergence, scale of 0 to 10 where 0 is no effect and 10 is complete control
[7] = Rate 125 g/ha, Postemergence, scale 0 to 10
[8] = Rate 62 g/ha, headed Pre-emergence (flood test species), scale 0 to 10 (0 no effect, 10 complete control)
[9] = Rate 125 g/ha, Pre-emergence, flood test species, scale 0 to 10 where 0 is no effect and 10 is complete control
[10] = Rate 250 g/ha, Pre-emergence, flood-test species, scale 0 to 10, 0 is no effect, 10 is complete control
[11] = Rate 500 g/ha, Pre-emergence, flood test species, scale 0 to 10 (0 no effect, 10 complete control)

`Cc1noc(C)c1Cn1c(=O)on(C(=O)N(c2ccc(F)cc2)C(C)C)c1=O` [Compound 259] was tested, and the “Nutsedge plant response rating” value (purple nutsedge; [1]) was 0, the “Nutsedge plant response rating” value (purple nutsedge; [2]) was 0 and the “Plant response rating, Nutsedge” value (purple nutsedge; [3]) was 0. The “Nutsedge plant response rating” value (purple nutsedge; [4]) was 0, the “Plant response rating (0 to 10; 0 is no effect, 10 is complete control), Nutsedge” value (purple nutsedge; Rate 250 g/ha, Postemergence) was 0 and the “Nutsedge plant response rating” value (purple nutsedge; [5]) was 0. For the same compound, the “Velvetleaf plant response rating” value (velvetleaf; [1]) was 2, the “Velvetleaf plant response rating” value (velvetleaf; [2]) was 4 and the “Plant response rating, Velvetleaf” value (velvetleaf; [3]) was 5. The “Velvetleaf plant response rating” value (velvetleaf; [4]) was 2, the “Velvetleaf plant response rating” value (velvetleaf; [5]) was 1 and the “Sugarbeets plant response rating” value (sugar beet; [1]) was 0. For the same compound, the “Sugarbeets plant response rating” value (sugar beet; [2]) was 0, the “Plant response rating, Sugarbeets” value (sugar beet; [3]) was 0 and the “Sugarbeets plant response rating” value (sugar beet; [4]) was 0. The “Sugarbeets plant response rating” value (sugar beet; [5]) was 3, the “B. signalgrass plant response rating” value (surinam grass; [1]) was 2 and the “B. signalgrass plant response rating” value (surinam grass; [2]) was 8. The “Plant response rating, B. signalgrass” value (surinam grass; [3]) was 9, the “B. signalgrass plant response rating” value (surinam grass; [6]) was 0 and the “B. signalgrass plant response rating” value (surinam grass; Rate 125 g/ha, Postemergence, scale 0 (no effect) to 10 (complete control)) was 0. For the same compound, the “B. signalgrass plant response rating” value (surinam grass; [4]) was 5, the “Plant response rating (0 to 10; 0 is no effect, 10 is complete control), B. signalgrass” value (surinam grass; Rate 250 g/ha, Postemergence) was 0 and the “B. signalgrass plant response rating” value (surinam grass; [5]) was 0. The “Wild oats plant response rating” value (wild oat; [1]) was 2, the “Wild oats plant response rating” value (wild oat; [2]) was 4 and the “Plant response rating, Wild oats” value (wild oat; [3]) was 4. For the same compound, the “Wild oats plant response rating” value (wild oat; [4]) was 2, the “Wild oats plant response rating” value (wild oat; [5]) was 0 and the “Corn plant response rating” value (corn; [1]) was 0. The “Corn plant response rating” value (corn; [2]) was 3, the “Plant response rating, Corn” value (corn; [3]) was 3 and the “Corn plant response rating” value (corn; [6]) was 0. For the same compound, the “Corn plant response rating” value (corn; [7]) was 0, the “Corn plant response rating” value (corn; [4]) was 0 and the “Plant response rating (0 to 10; 0 is no effect, 10 is complete control), Corn” value (corn; Rate 250 g/ha, Postemergence) was 0. The “Corn plant response rating” value (corn; [5]) was 0, the “Blackgrass plant response rating” value (blackgrass; [1]) was 2 and the “Blackgrass plant response rating” value (blackgrass; [2]) was 10. For the same compound, the “Plant response rating, Blackgrass” value (blackgrass; [3]) was 10, the “Blackgrass plant response rating” value (blackgrass; [6]) was 0 and the “Blackgrass plant response rating” value (blackgrass; [7]) was 0. For the same compound, the “Blackgrass plant response rating” value (blackgrass; [4]) was 10, the “Plant response rating (0 to 10; 0 is no effect, 10 is complete control), Blackgrass” value (blackgrass; Rate 250 g/ha, Postemergence) was 0 and the “Blackgrass plant response rating” value (blackgrass; [5]) was 0. For the same compound, the “Bedstraw plant response rating” value (bedstraw; [1]) was 7, the “Bedstraw plant response rating” value (bedstraw; [2]) was 10 and the “Plant response rating, Bedstraw” value (bedstraw; [3]) was 10. For the same compound, the “Bedstraw plant response rating” value (bedstraw; [6]) was 0, the “Bedstraw plant response rating” value (bedstraw; [7]) was 0 and the “Bedstraw plant response rating” value (bedstraw; [4]) was 10. For the same compound, the “Barnyardgrass plant response rating” value (bamyardgrass; [8]) was 0, the “Barnyardgrass plant response rating” value (bamyardgrass; [9]) was 0 and the “Barnyardgrass plant response rating” value (bamyardgrass; [10]) was 0. The “Barnyardgrass plant response rating” value (bamyardgrass; [11]) was 0, the “Morningglory plant response rating” value (morningglory; [1]) was 0 and the “Morningglory plant response rating” value (morningglory; [2]) was 0. For the same compound, the “Plant response rating, Morningglory” value (morningglory; [3]) was 0, the “Morningglory plant response rating” value (morningglory; [4]) was 0 and the “Plant response rating (0 to 10; 0 is no effect, 10 is complete control), Morningglory” value (morningglory; Rate 250 g/ha, Postemergence) was 7. The “Morningglory plant response rating” value (morningglory; [5]) was 8, the “Rape plant response rating” value (rape; [1]) was 0 and the “Plant response rating, Rape” value (rape; [3]) was 9. For the same compound, the “Rape plant response rating” value (rape; [4]) was 0, the “Plant response rating (0 to 10; 0 is no effect, 10 is complete control), Rape” value (rape; Rate 250 g/ha, Postemergence) was 0 and the “Crabgrass plant response rating” value (crabgrass; [1]) was 4. For the same compound, the “Plant response rating, Crabgrass” value (crabgrass; [3]) was 7, the “Crabgrass plant response rating” value (crabgrass; [4]) was 4 and the “Plant response rating (0 to 10; 0 is no effect, 10 is complete control), Crabgrass” value (crabgrass; Rate 250 g/ha, Postemergence) was 0. The “Crabgrass plant response rating” value (crabgrass; [5]) was 0, the “Rice plant response rating” value (rice; [8]) was 0 and the “Rice plant response rating” value (rice; [9]) was 0. For the same compound, the “Rice plant response rating” value (rice; [10]) was 0, the “Rice plant response rating” value (rice; [11]) was 0 and the “Cocklebur plant response rating” value (cocklebur; [1]) was 0. For the same compound, the “Cocklebur plant response rating” value (cocklebur; [2]) was 0, the “Plant response rating, Cocklebur” value (cocklebur; [3]) was 0 and the “Cocklebur plant response rating” value (cocklebur; [6]) was 0. For the same compound, the “Cocklebur plant response rating” value (cocklebur; [7]) was 2, the “Cocklebur plant response rating” value (cocklebur; [4]) was 0 and the “Plant response rating (0 to 10; 0 is no effect, 10 is complete control), Cocklebur” value (cocklebur; Rate 250 g/ha, Postemergence) was 2. The “Cocklebur plant response rating” value (cocklebur; [5]) was 3, the “S. Flatsedge plant response rating” value (smallflower flatsedge; [8]) was 0 and the “S. Flatsedge plant response rating” value (smallflower flatsedge; [9]) was 0. The “S. Flatsedge plant response rating” value (smallflower flatsedge; [10]) was 0, the “S. Flatsedge plant response rating” value (smallflower flatsedge; [11]) was 0 and the “Soybean plant response rating” value (soybean; [1]) was 0. The “Soybean plant response rating” value (soybean; [2]) was 0, the “Plant response rating, Soybean” value (soybean; [3]) was 0 and the “Soybean plant response rating” value (soybean; [4]) was 0. The “Soybean plant response rating” value (soybean; [5]) was 6, the “Giant foxtail plant response rating” value (giant foxtail; [1]) was 9 and the “Giant foxtail plant response rating” value (giant foxtail; [2]) was 9. The “Plant response rating, Giant foxtail” value (giant foxtail; [3]) was 10, the “Giant foxtail plant response rating” value (giant foxtail; [4]) was 9 and the “Plant response rating (0 to 10; 0 is no effect, 10 is complete control), Giant foxtail” value (giant foxtail; Rate 250 g/ha, Postemergence) was 0. The “Giant foxtail plant response rating” value (giant foxtail; [5]) was 0, the “Wheat plant response rating” value (wheat; [1]) was 0 and the “Wheat plant response rating” value (wheat; [2]) was 0. For the same compound, the “Plant response rating, Wheat” value (wheat; [3]) was 0, the “Wheat plant response rating” value (wheat; [4]) was 0 and the “Wheat plant response rating” value (wheat; [5]) was 3. The “Ducksalad plant response rating” value (duck salad; [8]) was 0, the “Ducksalad plant response rating” value (duck salad; [9]) was 0 and the “Ducksalad plant response rating” value (duck salad; [10]) was 0. For the same compound, the “Ducksalad plant response rating” value (duck salad; [11]) was 0, the “Redroot pigweed plant response rating” value (pigweed; [1]) was 0 and the “Redroot pigweed plant response rating” value (pigweed; [2]) was 2. For the same compound, the “Plant response rating, Redroot pigweed” value (pigweed; [3]) was 8, the “Redroot pigweed plant response rating” value (pigweed; [4]) was 0 and the “Plant response rating (0 to 10; 0 is no effect, 10 is complete control), Redroot pigweed” value (pigweed; Rate 250 g/ha, Postemergence) was 6. The “Redroot pigweed plant response rating” value (pigweed; [5]) was 7.

From US6737383B1, “Herbicidal oxadiazolidines” (priority 1999, dated 2004)
